# Tests used:
# PSA = test: Effect of trigger pH: PSA on LodeStar particles with ascorbate; type: biochemical; conditions: pH 9.0 (8.4)
# Description: (§1) B. In order to determine the effect of trigger solution pH on a variety of test assay systems, a series of experiments were conducted varying trigger pH. […] In the tables, two pH values are listed for each data set. The first is the pH of the buffer sample added to the reaction mixture. The second is the resulting pH of the final reaction mix.
# CK-MB = test: Effect of trigger pH: CK-MB on LodeStars with ascorbate; type: biochemical
# Description: as §1
# [1] = Control (7.0), S1, CK-MB 3200 ng/ml
# [2] = Control (7.0), S2, CK-MB 9150 ng/ml
# [3] = Control (7.0), S3, CK-MB 26300 ng/ml
# [4] = Control (7.0), S4, CK-MB 94600 ng/ml
# [5] = Control (7.0), S5, CK-MB 268750 ng/ml
# [6] = pH 6.0 (5.9), S1, CK-MB 3200 ng/ml
# [7] = pH 6.0 (5.9), S2, CK-MB 9150 ng/ml
# [8] = pH 6.0 (5.9), S3, CK-MB 26300 ng/ml
# [9] = pH 6.0 (5.9), S4, CK-MB 94600 ng/ml
# [10] = pH 6.0 (5.9), S5, CK-MB 268750 ng/ml
# [11] = pH 7.0 (6.8), S1, CK-MB 3200 ng/ml
# [12] = pH 7.0 (6.8), S2, CK-MB 9150 ng/ml
# [13] = pH 7.0 (6.8), S3, CK-MB 26300 ng/ml
# [14] = pH 7.0 (6.8), S4, CK-MB 94600 ng/ml
# [15] = pH 7.0 (6.8), S5, CK-MB 268750 ng/ml
# [16] = pH 8.0 (7.8), S1, CK-MB 3200 ng/ml
# [17] = pH 8.0 (7.8), S2, CK-MB 9150 ng/ml
# [18] = pH 8.0 (7.8), S3, CK-MB 26300 ng/ml
# [19] = pH 8.0 (7.8), S4, CK-MB 94600 ng/ml
# [20] = pH 8.0 (7.8), S5, CK-MB 268750 ng/ml
# [21] = pH 9.0 (8.6), S1, CK-MB 3200 ng/ml
# [22] = pH 9.0 (8.6), S2, CK-MB 9150 ng/ml
# [23] = pH 9.0 (8.6), S3, CK-MB 26300 ng/ml
# [24] = pH 9.0 (8.6), S4, CK-MB 94600 ng/ml
# [25] = pH 9.0 (8.6), S5, CK-MB 268750 ng/ml
compound,measurement,setting,value
"O=C1O[C@H]([C@@H](O)CO)C(O)=C1O [Ascorbic Acid, Ascorbic acid]",Mean RLU,"PSA; S3, PSA 7000 pg/ml","2,592,673 RLU"
same,S/S0,"PSA; S3, PSA 7000 pg/ml",445.4
same,Mean RLU,"PSA; S4, PSA 51000 pg/ml","11,443,659 RLU"
same,S/S0,"PSA; S4, PSA 51000 pg/ml",1965.8
same,Mean RLU,"PSA; S5, PSA 101600 pg/ml","11,479,280 RLU"
same,S/S0,"PSA; S5, PSA 101600 pg/ml",1971.9
same,Mean RLU,"CK-MB; Control (7.0), S0, CK-MB 600 ng/ml","1,837 RLU"
same,Mean RLU,CK-MB; [1],"7,380 RLU"
same,S/S0,CK-MB; [1],4.0
same,Mean RLU,CK-MB; [2],"22,931 RLU"
same,S/S0,CK-MB; [2],12.5
same,Mean RLU,CK-MB; [3],"75,857 RLU"
same,S/S0,CK-MB; [3],41.3
same,Mean RLU,CK-MB; [4],"427,483 RLU"
same,S/S0,CK-MB; [4],232.7
same,Mean RLU,CK-MB; [5],"2,055,748 RLU"
same,S/S0,CK-MB; [5],1118.9
same,Mean RLU,"CK-MB; pH 6.0 (5.9), S0, CK-MB 600 ng/ml",693 RLU
same,Mean RLU,CK-MB; [6],"2,849 RLU"
same,S/S0,CK-MB; [6],4.1
same,Mean RLU,CK-MB; [7],"6,812 RLU"
same,S/S0,CK-MB; [7],9.8
same,Mean RLU,CK-MB; [8],"28,129 RLU"
same,S/S0,CK-MB; [8],40.6
same,Mean RLU,CK-MB; [9],"119,144 RLU"
same,S/S0,CK-MB; [9],171.8
same,Mean RLU,CK-MB; [10],"754,177 RLU"
same,S/S0,CK-MB; [10],1087.8
same,Mean RLU,"CK-MB; pH 7.0 (6.8), S0, CK-MB 600 ng/ml","1,788 RLU"
same,Mean RLU,CK-MB; [11],"8,409 RLU"
same,S/S0,CK-MB; [11],4.7
same,Mean RLU,CK-MB; [12],"22,669 RLU"
same,S/S0,CK-MB; [12],12.7
same,Mean RLU,CK-MB; [13],"84,704 RLU"
same,S/S0,CK-MB; [13],47.4
same,Mean RLU,CK-MB; [14],"370,193 RLU"
same,S/S0,CK-MB; [14],207.0
same,Mean RLU,CK-MB; [15],"2,084,173 RLU"
same,S/S0,CK-MB; [15],1165.6
same,Mean RLU,"CK-MB; pH 8.0 (7.8), S0, CK-MB 600 ng/ml","3,263 RLU"
same,Mean RLU,CK-MB; [16],"15,725 RLU"
same,S/S0,CK-MB; [16],4.8
same,Mean RLU,CK-MB; [17],"42,805 RLU"
same,S/S0,CK-MB; [17],13.1
same,Mean RLU,CK-MB; [18],"150,140 RLU"
same,S/S0,CK-MB; [18],46.0
same,Mean RLU,CK-MB; [19],"788,451 RLU"
same,S/S0,CK-MB; [19],241.7
same,Mean RLU,CK-MB; [20],"4,618,668 RLU"
same,S/S0,CK-MB; [20],1415.6
same,Mean RLU,"CK-MB; pH 9.0 (8.6), S0, CK-MB 600 ng/ml","1,512 RLU"
same,Mean RLU,CK-MB; [21],"9,508 RLU"
same,S/S0,CK-MB; [21],6.3
same,Mean RLU,CK-MB; [22],"28,387 RLU"
same,S/S0,CK-MB; [22],18.8
same,Mean RLU,CK-MB; [23],"74,359 RLU"
same,S/S0,CK-MB; [23],49.2
same,Mean RLU,CK-MB; [24],"561,103 RLU"
same,S/S0,CK-MB; [24],371.1
same,Mean RLU,CK-MB; [25],"3,286,012 RLU"
same,S/S0,CK-MB; [25],2173.3
